One may read the AC50 as the concentration at which the activity in the assay is half-maximal.

Several values for one entry are separate records, joined by “and”; a condition that tells them apart may be missing. Identical values can stand only once. Activity calls are given as the source filed them.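 Rule for the calls: active = compounds whose fitted AC50 lies at or below twice their top valid test dose; inconclusive = flat curve between -70 and -30 percent, or unreliable curve fit; inactive = the rest.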 Bounds are passed on as bounds.

Data on 41 molecules can be found in PubChem BioAssay AID720563 (Broad Institute, 2013).

This test deals with Transforming acidic coiled-coil-containing protein 3 (Homo sapiens) (UniProt Q9Y6A5). Put plainly: potency against ARNT PAS-B/TACC3 association – biochemical, AlphaScreen, dry powder, dose response (AID 720563). Conditions: AlphaScreen His-ARNT PAS-B/GST-TACC3 binding, luminescence; for activity change, negative = inhibition: at 68 µM (top of the series). (In general: Bead proximity is the source of the signal in Alpha formats.)

On to `Cc1ccc(C(=O)Nc2nc(-c3ccccc3)cs2)o1`, for which the AC50 was > 136000 nM (inactive).
The same measure, in the same setting: the result for `c1ccc(-c2nc(-c3ccncc3)n[nH]2)nc1` reads 368 nM and 190 nM.
On to `O=C(Nc1nc(-c2ccccn2)cs1)c1ccco1`, for which the concentration at half-maximal activity (AC50) is 820 nM.
In the case of `CC1CCN(S(=O)(=O)c2ccc(C(=O)Nc3nnc(-c4ccco4)o3)cc2)CC1`, the AC50 was 34100 nM.
On the same count and under the same terms, the figure for `CC1CC(C)CN(S(=O)(=O)c2ccc(C(=O)Nc3nnc(C4=COCCO4)o3)cc2)C1` (stereo unspecified) is 35600 nM; for `Cc1cccc(NC(=O)CSc2ccc(-c3ccccn3)nn2)c1C` it is 819 nM; for `CC1CCN(S(=O)(=O)c2ccc(C(=O)Nc3nnc(C4=COCCO4)o3)cc2)CC1` it is 17600 nM.
In the case of `CC(C)CC(=O)NC(c1cccs1)c1ccc2cccnc2c1O` (stereo unspecified), the AC50 was 797 nM.
Still for that read-out and setting: the figure for `CCCCC(=O)NC(c1ccco1)c1ccc2cccnc2c1O` (stereo unspecified) is 1390 nM; for `O=C(CSc1ccc(-c2ccccn2)nn1)Nc1ccccc1` it is 869 nM.
`Cc1ccc(C(=O)Nc2nc(-c3ccccn3)cs2)o1`: the AC50 is 806 nM.
Take `COc1ccc(-c2nnc(NC(=O)c3ccc(S(=O)(=O)N4CCC(C)CC4)cc3)o2)cc1`: the AC50 is 17800 nM.
On the same count and under the same terms, the figure for `O=C(CSc1ccc(-c2ccccn2)nn1)Nc1nccs1` is 262 nM; for `CC1CCN(S(=O)(=O)c2ccc(C(=O)Nc3nnc(C4CC4)o3)cc2)CC1` it is 16700 nM.
As for `O=C(Nc1nc(-c2ccccn2)cs1)c1ccc(S(=O)(=O)N2CCOCC2)cc1`, the AC50 was 342 nM.
For `Cc1nnc(NC(=O)c2ccc(S(=O)(=O)N3CCCCC3)cc2)o1`, the AC50 is 14300 nM.
Turning to `CCn1nc(-c2cccnc2)nc2c(=O)n(C)c(=O)nc1-2`, the AC50 is 78.4 nM.
Consider `FC(F)(F)c1cc(-c2nn[nH]n2)cc(C(F)(F)F)c1`, for which the “activity change, negative = inhibition” value was “inactive”.
As for `CC(C)C(=O)NC(c1ccco1)c1cc(Cl)c2cccnc2c1O` (stereo unspecified), the AC50 was 5100 nM.
On to `Cc1ccc(S(=O)(=O)CCc2nnc(NC(=O)c3ccccc3)s2)cc1`, for which the “activity change, negative = inhibition” value was “inactive”.
In the case of `CSc1ccc(-c2nnc(NC(=O)c3ccc(S(=O)(=O)N4CCC(C)CC4)cc3)o2)cc1`, the half-maximal activity concentration (AC50) is 5810 nM.
Consider `COC(=O)Cc1cc(=O)n(-c2nc3ccccc3[nH]2)[nH]1`, for which the AC50 was 1910 nM.
On to `Cc1c(C(=O)N(C)C)sc2nc(-c3ccccn3)[nH]c(=O)c12`, for which the AC50 was 1750 nM.
Same read-out and setting: the result for `CC1CCCN(S(=O)(=O)c2ccc(C(=O)Nc3nnc(C4=COCCO4)o3)cc2)C1` (stereo unspecified) reads 11200 nM; that for `O=C(Nc1nnc(-c2ccc(F)cc2)o1)c1ccc(S(=O)(=O)N2CCCCC2)cc1`, 23000 nM; that for `O=C(CSc1ccc(-c2ccccn2)nn1)N1CCCC1`, 1680 nM.
Same read-out and setting: the figure for `Cc1ccc(C(=O)Nc2nc(-c3ccccn3)cs2)cc1S(=O)(=O)N1CCOCC1` is 1110 nM; for `CC1CCN(S(=O)(=O)c2ccc(C(=O)Nc3nnc(-c4ccno4)o3)cc2)CC1` it is 11400 nM; for `CC1CCN(S(=O)(=O)c2ccc(C(=O)Nc3nnc(-c4ccccn4)o3)cc2)CC1` it is 39600 nM.
The same measure, in the same setting: the figure for `Nc1nc(-c2ccccn2)nc(N)c1Cc1ccc(Cl)cc1Cl` is 649 nM; for `CC(C)Cc1nnc(NC(=O)c2cccc(S(=O)(=O)N3CCOCC3)c2)s1` it is > 136000 nM (inactive).
Consider `CC1CCN(S(=O)(=O)c2ccc(C(=O)Nc3nnc(-c4ccccc4)o3)cc2)CC1`, for which the AC50 is 20400 nM.
Same read-out and setting: the result for `O=C(Cc1ccccc1)NC(c1ccco1)c1ccc2cccnc2c1O` (stereo unspecified) reads 1490 nM; that for `O=C(CSc1ccc(-c2ccccn2)nn1)NC1CCCCC1`, 1630 nM.
Still for that read-out and setting: the result for `O=C(Nc1nnc(C2=COCCO2)o1)c1ccc(S(=O)(=O)N2CCCCC2)cc1` reads 19100 nM; that for `COC(=O)c1ccc(NC(=O)CSc2ccc(-c3ccccn3)nn2)cc1`, 630 nM.
The same measure, in the same setting: the figure for `O=C(Nc1nc(-c2ccncc2)cs1)c1cccc(S(=O)(=O)N2CCOCC2)c1` is 65900 nM.
For `CCc1cc2c(=O)[nH]c(-c3ccccn3)nc2s1`, the AC50 was 1240 nM.
On the same count and under the same terms, the figure for `CC1CCN(S(=O)(=O)c2ccc(C(=O)Nc3nnc(-c4cccs4)o3)cc2)CC1` is 49800 nM.
On the same count and under the same terms, the result for `CC(C)C(=O)NC(c1ccco1)c1ccc2cccnc2c1O` (stereo unspecified) reads 452 nM; that for `O=C(CSc1n[nH]c(-c2ccccn2)n1)Nc1ccc(Cl)cc1`, 884 nM.
